# In patent US9752110B2, “Method and compositions of preserving wine” (YSDR, LLC, priority 2008, dated 2017):
# Legend:
# [1] = system: eNOS; details: cited from earlier work
# [2] = system: acetobacter xilum; test: Antibacterial specificity: acetobacter
# [3] = system: lactobacilus; test: Antibacterial specificity: lactobacilli
# [4] = system: bacteria and fungi in wine; details: cited from earlier work
# [5] = cited from earlier work
# [6] = system: malolactic conversion; test: Effect on malolactic conversion in wine
# Description: Another important process in wine-making is the Malolactic fermentation. Malic acid is naturally present in the grape must, but it adds an unpleasant taste to the wine. […] As discussed above, nearly all red wines undergo malolactic fermentation. As discussed above, the conversion is usually carried out by introducing a lactobacteria (most commonly the Oenococus-Oeni lactobacteria) to the wine after an initial fermentation step. […] Therefore, in wine preserved with resveratrol and/or pterostilbene, the malolactic fermentation can take place during the initial alcohol-fermentation process. That is, no separate step of malic and lactic fermentation needs to be carried out when wine is preserved with resveratrol and/or pterostilbene.
Compound,eNOS expression or eNOS promoter activity [1],other results
COc1cc(C=CC(=O)O)cc(OC)c1O (stereo in doubt) [sinapinic acid],did not change,
"Oc1ccc(/C=C/c2cc(O)cc(O)c2)cc1 [Resveratrol, 3,4′,5-trihydroxy-trans-stilbene]",most efficacious stimulator,inhibition of acetobacter xilum [2]: specific inhibitor; anti-bacterial properties against lactobacilus [3]: no anti-bacterial properties; antibacterial and antifungal activity in wine [4]: antibacterial and antifungal activity
O=C(O)c1ccccc1 [benzoic acid],enhanced eNOS expression moderately,
O=C(O)/C=C/c1ccc(O)c(O)c1 [caffeic acid],enhanced eNOS expression moderately,
COc1cc(/C=C/C(=O)O)ccc1O [ferulic acid],did not change,
O=c1c(O)c(-c2ccc(O)c(O)c2)oc2cc(O)ccc12 [fisetin],did not change,
O=C(O)c1cc(O)c(O)c(O)c1 [gallic acid],did not change,
O=c1c(O)c(-c2cc(O)c(O)c(O)c2)oc2cc(O)cc(O)c12 [myricetin],did not change,
O=C(O)/C=C/c1ccc(O)cc1 [p-coumaric acid],enhanced eNOS expression moderately,
"COc1cc(/C=C/c2ccc(O)cc2)cc(OC)c1 [pterostilbene, 4-[(E)-2,(3,5-dimethoxyphenyl)ethenyl]phenol]",,water solubility [5]: less water soluble than resveratrol
COc1cc(C(=O)O)ccc1O [vanillic acid],enhanced eNOS expression moderately,
catechin,did not change,
sulfur dioxide [SO2],,effect on malolactic conversion [6]: suppress the malolactic conversion
